Results on 13 molecules are retold here after DBAASP.

In brackets after ≈: the same amount, converted by molar mass.

Common to all, as to experiment: ≥ marks a high value that may be exact or a test limit, other limits are often not marked, values filed in µg/mL are converted to µM
The subject of assay [1] is Escherichia coli.
Assay [2] deals with Bacillus cereus.
For assay [3], the system named is Staphylococcus aureus.
Assay [4] has as its system Pseudomonas aeruginosa ATCC 27853.
Assay [5] concerns Staphylococcus aureus ATCC 25923.
Assay [6] concerns Acinetobacter baumannii ATCC 19606.
For assay [7], the system named is Escherichia coli ATCC 25922.
Assay [8] has as its system Bacillus subtilis ATCC 23857.
The subject of assay [9] is Salmonella typhimurium.
In assay [10] the test system is Bacillus subtilis.
For assay [11], the system named is Candida albicans ATCC 10231.
For assay [12], the system named is Acinetobacter baumannii.
The test system of assay [13] is Pseudomonas aeruginosa.
The subject of assay [14] is Staphylococcus aureus ATCC 29213.
For assay [15], the system named is Enterococcus faecalis ATCC 29212.
In assay [16] the test system is Candida albicans ATCC 2002.
The subject of assay [17] is Staphylococcus aureus ATCC 33591.

With `CC(C)C[C@H](NC(=O)[C@@H](N)Cc1ccccc1)C(=O)NCC(=O)N[C@@H](CCCCN)C(=O)N[C@H](C(=O)N[C@@H](Cc1ccccc1)C(=O)N[C@@H](CCCCN)C(=O)NCC(=O)N[C@H](C(=O)N[C@@H](CO)C(=O)N[C@@H](CCCCN)C(=O)N[C@H](C(=O)N[C@@H](Cc1ccccc1)C(=O)N1CCC[C@H]1C(=O)N[C@@H](C)C(=O)N[C@H](C(=O)N[C@@H](Cc1ccccc1)C(=O)NCC(=O)N[C@@H](CCCCN)C(=O)N[C@H](C(=O)O)C(C)C)C(C)C)C(C)C)C(C)C)C(C)C` [FLGKVFKGVSKVFPAVFGKV], the figures for the MIC in [1], in assay [2] and in assay [3] were 59.4 µM (≈ 128 µg/mL), not below 59.4 µM and more than 59.4 µM, respectively.
On to `CC(C)C[C@H](NC(=O)[C@@H](N)Cc1ccccc1)C(=O)NCC(=O)N[C@@H](CCCCN)C(=O)N[C@H](C(=O)N[C@@H](Cc1ccccc1)C(=O)N[C@@H](CCCCN)C(=O)N[C@@H](CCCCN)C(=O)N[C@@H](C)C(=O)N[C@@H](CO)C(=O)N[C@@H](CCCCN)C(=O)N[C@H](C(=O)N[C@@H](Cc1ccccc1)C(=O)N1CCC[C@H]1C(=O)N[C@@H](C)C(=O)N[C@H](C(=O)N[C@H](C(=O)NCC(=O)N[C@@H](CCCCN)C(=O)N[C@H](C(=O)O)C(C)C)C(C)C)C(C)C)C(C)C)C(C)C` [FLGKVFKKASKVFPAVVGKV], for which the MIC was 59.5 µM (≈ 128 µg/mL) in [1], not below 59.5 µM in assay [2] and more than 59.5 µM in assay [3].
`CC(C)C[C@H](NC(=O)[C@H](CCCCN)NC(=O)[C@@H](NC(=O)[C@@H](NC(=O)[C@@H](NC(=O)CNC(=O)[C@H](CC(C)C)NC(=O)[C@@H](N)Cc1ccccc1)C(C)C)C(C)C)C(C)C)C(=O)N[C@@H](C)C(=O)N[C@@H](CO)C(=O)N[C@@H](CCCCN)C(=O)N[C@H](C(=O)N[C@@H](Cc1ccccc1)C(=O)N1CCC[C@H]1C(=O)N[C@@H](C)C(=O)N[C@H](C(=O)N[C@@H](Cc1ccccc1)C(=O)NCC(=O)N[C@@H](CCCCN)C(=O)N[C@H](C(=O)O)C(C)C)C(C)C)C(C)C` [FLGVVVKLASKVFPAVFGKV]: the minimal inhibitory concentration (MIC) in assay [1] is more than 122 µM; in assay [2], 15.2 µM (≈ 32 µg/mL); in assay [3], 7.6 µM (≈ 16 µg/mL).
On to `CC(C)C[C@H](NC(=O)[C@H](CC(C)C)NC(=O)[C@H](CCCCN)NC(=O)[C@H](CCCCN)NC(=O)[C@H](CC(C)C)NC(=O)[C@H](Cc1cnc[nH]1)NC(=O)[C@H](CCCCN)NC(=O)[C@H](CC(C)C)NC(=O)[C@@H](N)Cc1ccccc1)C(N)=O` [FLKHLKKLL], for which the MIC came to 7.02 µM (≈ 7.99 µg/mL) in [4], 112 µM (≈ 128 µg/mL) in assay [5], 112 µM (≈ 128 µg/mL) in assay [6] and 56.2 µM (≈ 63.9 µg/mL) in [7].
Take `CC[C@H](C)[C@H](NC(=O)[C@H](CCCCN)NC(=O)[C@@H](NC(=O)[C@@H](NC(=O)[C@H](CCCCN)NC(=O)[C@@H](NC(=O)[C@@H](NC(=O)CNC(=O)[C@H](C)NC(=O)[C@@H](NC(=O)[C@@H](NC(=O)CN)[C@@H](C)CC)[C@@H](C)CC)[C@@H](C)CC)[C@@H](C)CC)[C@@H](C)CC)[C@@H](C)CC)C(N)=O` [GIIAGIIKIIKI]: the values for the minimal inhibitory concentration (MIC) in assay [7] and in [8] were more than 128 µM and not below 128 µM, respectively.
On the same counts, the results for `CC[C@H](C)[C@H](NC(=O)CNC(=O)[C@H](CCCN=C(N)N)NC(=O)[C@H](CCCCN)NC(=O)[C@@H](NC(=O)CNC(=O)[C@H](CCCN=C(N)N)NC(=O)[C@H](CCCCN)NC(=O)[C@@H](NC(=O)CN)[C@@H](C)CC)[C@@H](C)CC)C(=O)N[C@@H](CCCCN)C(=O)N[C@@H](CCCN=C(N)N)C(N)=O` [GIKRGIKRGIKR] are more than 128 µM and not below 128 µM.
For the molecule `CC(C)[C@H](NC(=O)CNC(=O)[C@H](CCCN=C(N)N)NC(=O)[C@@H](NC(=O)[C@H](Cc1c[nH]c2ccccc12)NC(=O)[C@@H](NC(=O)[C@H](CCCN=C(N)N)NC(=O)CNC(=O)[C@H](Cc1c[nH]c2ccccc12)NC(=O)[C@H](CCCN=C(N)N)NC(=O)[C@@H](NC(=O)[C@@H](NC(=O)[C@@H](NC(=O)CN)C(C)C)C(C)C)C(C)C)C(C)C)C(C)C)C(=O)N[C@@H](CCCN=C(N)N)C(=O)N[C@@H](CCCN=C(N)N)C(N)=O` [GVVVRWGRVWVRGVRR], the MIC worked out at 4 µM (≈ 7.75 µg/mL) in [1], 2 µM (≈ 3.87 µg/mL) in assay [9], 2 µM (≈ 3.87 µg/mL) in [10] and 4 µM (≈ 7.75 µg/mL) in [3].
Regarding `CC(C)C[C@H](NC(=O)[C@H](Cc1ccc(O)cc1)NC(=O)[C@H](CCCCN)NC(=O)[C@H](Cc1ccccc1)NC(=O)[C@H](CC(C)C)NC(=O)[C@H](CCCN=C(N)N)NC(=O)[C@H](CCCCN)NC(=O)[C@H](Cc1ccccc1)NC(=O)[C@H](CC(C)C)NC(=O)[C@H](CCCN=C(N)N)NC(=O)[C@@H](N)CCCCN)C(=O)N[C@@H](CCCN=C(N)N)C(=O)N[C@@H](CCCN=C(N)N)C(=O)N[C@@H](Cc1ccccc1)C(=O)O` [KRLFKRLFKYLRRF], the MIC in [11] was 2.03 µM (≈ 4 µg/mL); in assay [4], 0.507 µM (≈ 1 µg/mL); in [5], 0.507 µM (≈ 1 µg/mL); in assay [12] it was 1.01 µM (≈ 2 µg/mL); in assay [13], 2.03 µM (≈ 4 µg/mL); in assay [6], 1.01 µM (≈ 2 µg/mL). The same molecule came in with an MIC in assay [7] of 1.01 µM (≈ 2 µg/mL).
With `CC[C@H](C)[C@H](NC(=O)[C@H](Cc1cnc[nH]1)NC(=O)[C@H](CCCN=C(N)N)NC(=O)[C@H](CC(C)C)NC(=O)[C@H](CC(N)=O)NC(=O)[C@@H](N)CC(N)=O)C(=O)N[C@H](C(=O)N[C@@H](C)C(=O)N[C@@H](Cc1c[nH]c2ccccc12)C(=O)N[C@H]1CSSC[C@@H](C(=O)N[C@@H](C)C(=O)N[C@@H](CCCN=C(N)N)C(=O)N[C@@H](Cc2ccccc2)C(=O)N[C@@H](CCCCN)C(=O)N2CCC[C@H]2C(=O)N[C@@H](CCC(N)=O)C(=O)O)NC(=O)[C@H](C(C)C)NC(=O)[C@H](C)NC(=O)[C@H](CC(C)C)NC(=O)[C@H](CO)NC(=O)[C@H](Cc2ccc(O)cc2)NC(=O)[C@H](CC(N)=O)NC(=O)[C@H](CCCN=C(N)N)NC(=O)[C@H](CC(N)=O)NC(=O)[C@H](CCCCN)NC1=O)C(C)C` [NNLRHIVAWCKNRNYSLAVCARFKPQ], the MIC in assay [14], in assay [6], in [7] and in [15] was more than 64 µM in each case.
`CC[C@H](C)[C@H](NC(=O)[C@@H](NC(=O)[C@@H](NC(=O)[C@@H]1CCCN1C(=O)[C@H](Cc1c[nH]c2ccccc12)NC(=O)[C@H](Cc1ccccc1)NC(=O)[C@H](CCCN=C(N)N)NC(=O)[C@H](CCCCN)NC(=O)[C@@H](NC(=O)[C@@H](N)CCCN=C(N)N)[C@@H](C)CC)C(C)C)C(C)C)C(=O)N[C@@H](CCCN=C(N)N)C(=O)N[C@H](C(=O)N[C@H](C(=O)N[C@H](C(=O)O)C(C)C)C(C)C)[C@@H](C)O` [RIKRFWPVVIRTVV] displayed an MIC in assay [16] not below 84.8 µM.
Consider `CC[C@H](C)[C@H](NC(=O)[C@H](CCC(N)=O)NC(=O)[C@H](CCSC)NC(=O)[C@H](CCC(N)=O)NC(=O)[C@@H](NC(=O)[C@H](CCCCN)NC(=O)[C@H](Cc1ccccc1)NC(=O)[C@H](Cc1c[nH]c2ccccc12)NC(=O)[C@@H](N)CCCN=C(N)N)[C@@H](C)CC)C(=O)N[C@@H](CCCN=C(N)N)C(=O)N[C@@H](CCCN=C(N)N)C(=O)N[C@@H](Cc1c[nH]c2ccccc12)C(=O)N[C@@H](CCCCN)C(=O)N[C@@H](CC(N)=O)C(=O)N[C@@H](CCCCN)C(=O)N[C@@H](CCCCN)C(N)=O` [RWFKIQMQIRRWKNKK], for which the MIC in assay [7] is 32 µM (≈ 71.9 µg/mL); in [17] it was not below 64 µM.
In the case of `CC[C@H](C)[C@H](NC(=O)[C@@H](NC(=O)[C@H](CO)NC(=O)[C@@H]1CCCN1C(=O)[C@@H](NC(=O)[C@@H](NC(=O)[C@H](CCCCN)NC(=O)[C@H](CO)NC(=O)[C@H](C)NC(=O)[C@@H](NC(=O)CNC(=O)[C@H](Cc1ccccc1)NC(=O)[C@@H](NC(=O)[C@@H](NC(=O)[C@@H](N)CO)C(C)C)C(C)C)C(C)C)C(C)C)C(C)C)C(C)C)C(=O)NCC(=O)N[C@@H](CCCCN)C(=O)N[C@H](C(=O)N[C@@H](CCCCN)C(=O)N[C@H](C(=O)O)[C@@H](C)O)C(C)C` [SVVFGVASKVVPSVIGKVKT], the MIC is more than 128 µM in assay [1] and not below 128 µM in assay [2].
On the same counts, the results for `CC[C@H](C)[C@H](NC(=O)[C@H](CC(C)C)NC(=O)[C@H](CO)NC(=O)[C@@H]1CCCN1C(=O)[C@@H](NC(=O)[C@@H](NC(=O)[C@H](CCCCN)NC(=O)[C@H](CO)NC(=O)[C@H](C)NC(=O)[C@@H](NC(=O)[C@H](CCCN=C(N)N)NC(=O)CNC(=O)[C@@H](NC(=O)[C@@H](N)C(C)C)C(C)C)C(C)C)C(C)C)C(C)C)C(=O)NCC(=O)N[C@@H](CC(C)C)C(=O)N[C@@H](Cc1ccccc1)C(=O)N[C@H](C(=O)N[C@H](C(=O)N[C@@H](CCCCN)C(=O)O)[C@@H](C)O)[C@@H](C)O` [VVGRVASKVVPSLIGLFTTK] are more than 124 µM and not below 124 µM.
